These compounds were tested on TNF-α release induced by LPS in human peripheral blood mononuclear cells (assay: Test 2: Inhibition of TNF-α release induced by LPS in human peripheral blood mononuclear cells). Settings: Homo sapiens, PBMC, test product at 0.1 μM, LPS 400 ng/mL, 19 h, TNF-α in supernatant by ELISA.
Type: cell-based
Experimental: Test 2: Inhibition of TNF-α Release Induced by LPS in Human Peripheral Blood Mononuclear Cells
To obtain the mononuclear cells: heparinized venous blood, obtained from healthy volunteers, is diluted with an equal volume of saline phosphate buffer without calcium or magnesium. Aliquots of 30 mL of the mixture are transferred to 50 mL centrifuge tubes containing 15 mL of Ficoll-Hypaque (1.077 g/mL). The tubes are centrifuged at 1200×g for 20 min at room temperature without braking. Approximately two-thirds of the band of platelets lying above the mononuclear cells is removed with a pipette. The mononuclear cells are carefully transferred to a 50 mL tube, washed twice with saline phosphate buffer, centrifuged at 300×g for 10 min at room temperature and resuspended in RPMI supplemented with 1% inactivated fetal bovine serum at a cell density of 2×10^6 cells/mL.
Inhibition of TNF-α release: 100 μL of mononuclear cells (2×10^6 cells/mL) are incubated on 96-well plates with 50 μL of the test product (final concentration, 0.001-10 μM) and 50 μL LPS (E. coli 055B5, Sigma) at a final concentration of 400 ng/mL for 19 h at 37° C. in an atmosphere with CO2 at 5%. The amount of TNF-α released in the supernatant is quantified using a commercial ELISA kit (Biosource International).

SMILES | inhibition at 0.1 µM [%]
OCCCn1cc2cc(-c3ccnc(NCC4CC4)n3)c(-c3ccc(F)cc3)nc2n1 [Example 212, 3-[5-[2-[(Cyclopropylmethyl)-amino]pyrimidin-4-yl]-6-(4-fluorophenyl)pyrazolo[3,4-b]pyridin-2-yl]propan-1-ol] | 67.5
OCCCn1cc2c(-c3ccc(F)cc3)c(-c3ccnc(NCC4CC4)n3)c(-c3ccc(F)cc3)nc2n1 [Example 213, 3-[5-[2-[(Cyclopropylmethyl)amino]-pyrimidin-4-yl]-4,6-bis(4-fluorophenyl)pyrazolo[3,4-b]pyridin-2-yl]propan-1-ol] | 68.1
Cn1cc2c(-c3ccc(F)cc3)c(-c3ccnc(Nc4ccc(S(N)(=O)=O)cc4)c3)c(-c3ccc(F)cc3)nc2n1 [Example 214, 4-[4-[4,6-Bis(4-fluorophenyl)-2-methylpyrazolo[3,4-b]pyridin-5-yl]pyridin-2-ylamino]benzenesulfonamide] | 71.1
Fc1ccc(-c2nc3[nH]ncc3c(-c3cc[nH]n3)c2-c2ccncc2)cc1 [Example 217, 6-(4-Fluorophenyl)-4-(1H-pyrazol-3-yl)-5-(4-pyridyl)-1H-pyrazolo[3,4-b]pyridine] | 53.8
OCCNCCn1cc2c(-c3ccccc3)c(-c3ccncc3)c(-c3ccccc3)nc2n1 [Example 232, 2-[2-(4,6-Diphenyl-5-(4-pyridyl)pyrazolo[3,4-b]pyridin-2-yl)ethylamino]ethanol] | 67.9
CC(=O)NCCCn1cc2c(-c3ccc(F)cc3)c(-c3ccncc3)c(-c3ccc(F)cc3)nc2n1 [Example 240, N-[3-[4,6-Bis(4-fluorophenyl)-5-(4-pyridyl)pyrazolo[3,4-b]pyridin-2-yl]propyl]acetamide] | 58.4
O=C(NCCn1cc2c(-c3ccc(F)cc3)c(-c3ccncc3)c(-c3ccc(F)cc3)nc2n1)C1CCNCC1 [Example 248, N-[2-[4,6-Bis(4-fluorophenyl)-5-(4-pyridyl)pyrazolo[3,4-b]pyridin-2-yl]ethyl]piperidine-4-carboxamide] | 53.2
O=C(CNCCO)NCCn1cc2c(-c3ccc(F)cc3)c(-c3ccncc3)c(-c3ccc(F)cc3)nc2n1 [Example 250, N-[2-[4,6-Bis(4-fluorophenyl)-5-(4-pyridyl)pyrazolo[3,4-b]pyridin-2-yl]ethyl]-2-(2-hydroxyethylamino)acetamide] | 67
CC(=O)Nc1n[nH]c2nc(-c3ccc(F)cc3)c(-c3ccnc(NCC4CC4)n3)cc12 [Example 268, N-[5-[2-[(Cyclopropylmethyl)amino]pyrimidin-4-yl]-6-(4-fluorophenyl)-1H-pyrazolo[3,4-b]pyridin-3-yl]acetamide] | 69.1
Cc1ccc(-c2c(-c3ccncc3)c(-c3ccc(F)cc3)nc3nn(CCCO)cc23)o1 [Example 272, 3-[6-(4-Fluorophenyl)-4-(5-methylfuran-2-yl)-5-(4-pyridyl)-pyrazolo[3,4-b]pyridin-2-yl]propan-1-ol] | 65.6
Cc1n[nH]c2nc(-c3ccc(F)cc3)c(-c3ccnc(N[C@@H](C)c4ccccc4)n3)cc12 [Example 279, (1S)-N-(1-Phenylethyl)-[4-[6-(4-fluorophenyl)-3-methyl-1H-pyrazolo[3,4-b]pyridin-5-yl]pyrimidin-2-yl]amine] | 100
CC(CO)Nc1nccc(-c2cc3cn(C)nc3nc2-c2ccc(F)cc2)n1 (stereo not shown) [Example 283, 2-[4-[6-(4-Fluorophenyl)-2-methylpyrazolo[3,4-b]pyridin-5-yl]pyrimidin-2-ylamino]propan-1-ol] | 52.4
OCCCNc1nccc(-c2cc3cn[nH]c3nc2-c2cccc(C(F)(F)F)c2)n1 [Example 287, 3-[4-[6-(3-Trifluoromethylphenyl)-1H-pyrazolo[3,4-b]pyridin-5-yl]pyrimidin-2-ylamino]propan-1-ol] | 71.2
CCNc1nccc(-c2cc3cn[nH]c3nc2-c2cccc(C(F)(F)F)c2)n1 [Example 289, N-Ethyl-[4-[6-(3-trifluoromethyl-phenyl)-1H-pyrazolo[3,4-b]pyridin-5-yl]pyrimidin-2-yl]amine] | 51.3
FC(F)(F)c1cccc(-c2nc3[nH]ncc3cc2-c2ccnc(NCc3ccccc3)n2)c1 [Example 290, N-Benzyl-[4-[6-(3-trifluoromethyl-phenyl)-1H-pyrazolo[3,4-b]pyridin-5-yl]pyrimidin-2-yl]amine] | 65.8

Same assay, conditions: test product at 0.1 μM, LPS 400 ng/mL, 19 h, TNF-α in supernatant by ELISA

SMILES | % Inhibition at 0.1 μM [%]
c1ccc(-c2nc3[nH]ncc3cc2-c2ccnc(NCC3CC3)n2)cc1 [Example 282, N-Cyclopropylmethyl-4-[6-[phenyl-1H-pyrazolo[3,4-b]pyridin-5-yl]pyrimidin-2-yl]amine] | 65.2
